Measured values taken from patent US10696687B2, “Pyrazolo fused heterocyclic compounds as ERK inhibitors” (CHANGZHOU JIEKAI PHARMATECH CO., LTD., priority 2015, dated 2020).

System: Colon cancer cells (Colo205 cell line)
Test: Colo205 cell proliferation assay (MTT assay, WST-8 readout)
Assay type: cell-based
Details: Homo sapiens, COLO 205, 72 hours incubation, absorbance at 450 nm, read-out: Colo 205 cell growth inhibition IC50
Method: Compounds disclosed herein were tested for the inhibition of ERK2 by a Colo205 cell proliferation assay commonly known as MTT assay. In this assay, a complete media was prepared by adding 10% fetal bovine serum to RPMI-1640 medium (Life technology). Colon cancer cells (Colo205 cell line) were added to each of 88 wells of a 96 well plate at a seeding density of 5,000 cells/well/90 μL. The cells were allowed to attach to the plate by incubating at 37° C. for 24 hours. The compound was dissolved in DMSO (SIGMA). A solution of test compound was prepared in complete media by serial dilution to obtain the following concentrations: 500 μM, 150 μM, 50 μM, 15 μM, 5 μM, 1.5 μM, 0.5 μM, 0.15 μM and 0.05 μM. The test compound solution (10 μL) was added to each of 80 cell-containing wells. The final concentrations of the compound were following: 50 μM, 15 μM, 5 μM, 1.5 μM, 0.5 μM, 0.15 μM, 0.05 μM, 0.015 μM and 0.005 μM. The final concentration of DMSO is 0.5%. To the 8 remaining cell-containing wells, only complete media (containing 0.5% DMSO) was added to form a control group in order to measure maximal proliferation. To the remaining 8 empty wells, complete media was added to for a vehicle control group in order to measure background. The plates were incubated at 37° C. for 72 hours. 10 μL WST-8 solution (DOJINDO, Cell Counting KIT-8) was added to each well. The plates were further incubated at 37° C. for 2 hours, and then read for the absorbance using a microplate reader at 450 nm.

Row | Compound | IC50 [µM]
1 | Cc1cc(-c2n[nH]c3ncc(C(=O)N[C@@H]4C[C@H]4c4ccccc4)cc23)ccn1 (relative stereo) [Compound 36, trans-3-(2-methylpyridin-4-yl)-N-(2-phenylcyclopropyl)-1H-pyrazolo[3,4-b]pyridine-5-carboxamide] | 0.052 to 10
2 | Cc1cc(-c2n[nH]c3sc(C(=O)NC(c4ccc(F)cc4)C(C)(C)O)cc23)ccn1 (stereo not drawn) [Compound 55, N-(1-(4-fluorophenyl)-2-hydroxy-2-methylpropyl)-3-(2-methylpyridin-4-yl)-1H-thieno[2,3-c]pyrazole-5-carboxamide] | 0.052 to 10
3 | Cc1cc(-c2n[nH]c3ncc(C(=O)N[C@H]4CCC[C@@H]4c4ccccc4)cc23)ccn1 [Compound 32] | 0.052 to 10
4 | Cc1cc(-c2n[nH]c3ncc(C(=O)N[C@@H]4CN(C)C[C@H]4c4ccccc4Cl)cc23)ccn1 [Compound 33, N-((3S,4R)-4-(2-chlorophenyl)-1-methylpyrrolidin-3-yl)-3-(2-methylpyridin-4-yl)-1H-pyrazolo[3,4-b]pyridine-5-carboxamide] | 0.052 to 10
5 | CN1C[C@H](NC(=O)c2cnc3[nH]nc(-c4ccnc(C(F)(F)F)c4)c3c2)[C@@H](c2ccccc2C(F)(F)F)C1 (stereo in doubt) [Compound 18, N-(-1-methyl-4-(2-(trifluoromethyl)phenyl)pyrrolidin-3-yl)-3-(2-(trifluoromethyl)pyridin-4-yl)-1H-pyrazolo[3,4-b]pyridine-5-carboxamide] | 0.052 to 10

Other lines, results leading:

Row | IC50 [µM] | Compound
6 | 0.052 to 10 | Cc1cc(-c2n[nH]c3ccc(C(=O)N[C@@H]4CN(C)C[C@H]4c4ccccc4Cl)cc23)ccn1 [Compound 37, N-((3S,4R)-4-(2-chlorophenyl)-1-methylpyrrolidin-3-yl)-3-(2-methylpyridin-4-yl)-1H-indazole-5-carboxamide]
7 | 0.052 to 10 | Cc1cc(-c2n[nH]c3ccc(C(=O)N[C@@H]4CN(C)C[C@H]4c4ccccc4C(F)(F)F)cc23)ccn1 [Compound 39, N-((3S,4R)-1-methyl-4-(2-(trifluoromethyl)phenyl)pyrrolidin-3-yl)-3-(2-methylpyridin-4-yl)-1H-indazole-5-carboxamide]
8 | 0.052 to 10 | COc1ncc(-c2n[nH]c3ncc(C(=O)N[C@H]4CN(C)C[C@@H]4c4ccccc4C(F)(F)F)cc23)cn1 (relative stereo) [Compound 17, trans-3-(2-methoxypyrimidin-5-yl)-N-(-1-methyl-4-(2-(trifluoromethyl)phenyl)pyrrolidin-3-yl)-1H-pyrazolo[3,4-b]pyridine-5-carboxamide]
9 | 0.052 to 10 | Cc1cc(-c2n[nH]c3ccc(C(=O)N[C@H]4CN(C)C[C@@H]4c4ccccc4C(F)(F)F)cc23)ccn1 [Compound 41, N-((3R,4S)-1-methyl-4-(2-(trifluoromethyl)phenyl)pyrrolidin-3-yl)-3-(2-methylpyridin-4-yl)-1H-indazole-5-carboxamide]
10 | 0.052 to 10 | Cc1cc(-c2n[nH]c3ncc(C(=O)N[C@@H]4CN(C)C[C@H]4c4ccccc4C(F)(F)F)cc23)ccn1 (racemic) [Compound 3, trans-N-(1-methyl-4-(2-(trifluoromethyl)phenyl)pyrrolidin-3-yl)-3-(2-methylpyridin-4-yl)-1H-pyrazolo[3,4-b]pyridine-5-carboxamide]
11 | 0.052 to 10 | Cc1cc(-c2n[nH]c3ncc(C(=O)N[C@H](CO)c4cccc(Cl)c4)cc23)ccn1 [Compound 1, (S)-N-(1-(3-chlorophenyl)-2-hydroxyethyl)-3-(2-methylpyridin-4-yl)-1H-pyrazolo[3,4-b]pyridine-5-carboxamide]
12 | 0.052 to 10 | Cc1cc(-c2n[nH]c3ncc(C(=O)N[C@@H]4CN(C)C[C@H]4c4ccccc4)cc23)ccn1 (relative stereo) [Compound 38, Trans-N-(1-methyl-4-phenylpyrrolidin-3-yl)-3-(2-methylpyridin-4-yl)-1H-pyrazolo[3,4-b]pyridine-5-carboxamide]
